Measured values from paper PMC10914731, “Homo-BacPROTAC-induced degradation of ClpC1 as a strategy against drug-resistant mycobacteria” (Nature Communications, 2024).
Values joined by “and” are separate entries in the source; they are usually repeats but may differ in a detail not shown here. Identical values can stand only once. Like-named read-outs stand apart in the source and are kept apart here. *1 amine or outer side, *2 acyl side, *3 side chain or, on linkers, in order; H or OH if unused. Where a SMILES comes first, the peptide text is derived from it. [ ]: non-standard residue; d: D form. ξ: configuration not given here. X3 = C#CCOc1ccc([C@@H](OC)[C@H](N[*:1])C(=O)[*:2])cc1; ξNMeTrp(1-Me) = CNC(Cc1cn(C)c2ccccc12)C(=O)O; X8 = CC(CO)C[C@@H](C(=O)[*:2])N(C)[*:1]; NMeL = CN[C@@H](CC(C)C)C(=O)O; ξV = CC(C)C(N)C(=O)O

Experiments:
[1] = format: in vitro ADME, Rat
Description: (§1) Cryopreserved hepatocytes are incubated in an appropriate buffer system containing 50% species serum. Following an acclimation period (15–30 min) in an incubator (37 °C, 5−10% CO2, 85–95% humidity) the test compound is added to the hepatocyte suspension (pH 7.4, typical cell density of about 1 million cells/mL; final concentration of test compound is 1 µM, final DMSO concentration <0.05% v/v). The cells are incubated for up to 6 h and samples are taken at 6 different time points. Samples are then quenched with acetonitrile and pelleted by centrifugation. The remaining amount of parent compound in the supernatants is then analysed by HPLC-MS/MS. Clearance is calculated from compound half-lives using the well-stirred liver model and is converted to clearance stated as % of the liver blood flow (% Qh).

[2] = format: in vitro ADME, Human; conditions: for Hepatocyte Human: clearance in hepatocytes
Description: as §1

[3] = biological target: ClpC1 NTD protein (M. tuberculosis) (Mycobacterium tuberculosis, UniProt P9WPC9); test: biochemical; format: binding
Caco-2 monolayers = test: in vitro
Text: (§2) Supplementary Table 1. Structure-Activity Relationships part 1 (SPR, Caco-2) […]
(§3) SPR. Mean values ± standard deviation. Footnotes indicate the number of measurements performed for the respective compound: a) n = […]
(§4) [5] Permeability across Caco-2 monolayers in P(A−B): apical to basolateral and P(B−A): basolateral to apical direction (values reported in 10-
(§5) 6 cm s-1); efflux ratio = P(B−A)/P(A−B); Int. perm: mean value of P(A−B) and P(B−A). […] Influence of Trp-Nα methylation on P(A-B) and efflux
(§6) ratio. Bold: positive influence.

in vitro = conditions: human; for Papp A→B: apical to basolateral; for Papp B→A: basolateral to apical
Text: as §2, §3, §4, §5, §6

[4] = Hepatocyte stability, mice; format: in vitro ADME; conditions: for Hepatocyte Mice: clearance in hepatocytes
Description: as §1

[5] = biological target: ClpC1-NTD substrate, M. tuberculosis ClpC1P1P2 (Mycobacterium tuberculosis, UniProt P9WPC9); test: biochemical; format: biochemical
[6] = biological target: His6-tagged ClpC1-NTD substrate, M. smegmatis ClpC1P1P2 (UniProt A0R574+P9WPC9); test: biochemical; format: biochemical
[7] = mean value of P(A−B) and P(B−A)
[8] = Caco-2, Caco-2 permeability P (A-B)
[9] = SPR (Supplementary Table 1), read-out: KD ClpC1-NTD Mean ± SD
[10] = SPR, single independent measurements, read-out: KD ClpC1-NTD
[11] = Caco-2, Caco-2 permeability P (B-A)
[12] = read-out: DC50, single measurements
[13] = read-out: KD ClpC1-NTD Mean ± SD

Chain of ClpC1-NTD substrate, M. tuberculosis ClpC1P1P2 (P9WPC5 whole entry): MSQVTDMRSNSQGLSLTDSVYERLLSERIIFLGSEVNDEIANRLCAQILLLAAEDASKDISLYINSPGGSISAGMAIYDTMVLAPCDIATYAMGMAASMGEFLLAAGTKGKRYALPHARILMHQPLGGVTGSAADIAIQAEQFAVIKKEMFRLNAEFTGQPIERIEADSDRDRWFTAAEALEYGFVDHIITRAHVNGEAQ
Chain of ClpC1-NTD substrate, M. tuberculosis ClpC1P1P2 (P9WPC9 whole entry): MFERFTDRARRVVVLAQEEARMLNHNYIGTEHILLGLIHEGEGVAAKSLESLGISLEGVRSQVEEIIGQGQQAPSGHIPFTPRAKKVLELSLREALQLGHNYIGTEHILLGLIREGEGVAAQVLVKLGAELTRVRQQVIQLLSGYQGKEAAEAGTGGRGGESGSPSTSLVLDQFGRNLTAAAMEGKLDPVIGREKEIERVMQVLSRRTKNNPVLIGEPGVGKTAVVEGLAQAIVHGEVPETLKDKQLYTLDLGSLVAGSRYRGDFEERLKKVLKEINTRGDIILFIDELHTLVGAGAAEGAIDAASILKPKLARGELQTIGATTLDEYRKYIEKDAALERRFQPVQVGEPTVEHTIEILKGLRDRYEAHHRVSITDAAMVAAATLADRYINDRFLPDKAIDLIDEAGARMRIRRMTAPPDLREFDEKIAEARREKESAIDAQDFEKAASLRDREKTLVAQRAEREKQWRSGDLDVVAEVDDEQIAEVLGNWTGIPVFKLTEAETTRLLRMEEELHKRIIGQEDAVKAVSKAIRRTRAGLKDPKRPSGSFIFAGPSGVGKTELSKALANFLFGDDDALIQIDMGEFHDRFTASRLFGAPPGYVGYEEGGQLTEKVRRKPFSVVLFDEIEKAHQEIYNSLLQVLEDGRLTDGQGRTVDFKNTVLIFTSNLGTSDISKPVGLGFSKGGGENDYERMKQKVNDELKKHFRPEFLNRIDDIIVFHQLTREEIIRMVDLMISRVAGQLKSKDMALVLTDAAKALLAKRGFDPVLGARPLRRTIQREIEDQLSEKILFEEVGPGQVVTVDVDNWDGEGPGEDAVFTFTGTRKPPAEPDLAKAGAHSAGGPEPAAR
Chain of ClpC1-NTD substrate, M. tuberculosis ClpC1P1P2 (P9WPC3 whole entry, further chain): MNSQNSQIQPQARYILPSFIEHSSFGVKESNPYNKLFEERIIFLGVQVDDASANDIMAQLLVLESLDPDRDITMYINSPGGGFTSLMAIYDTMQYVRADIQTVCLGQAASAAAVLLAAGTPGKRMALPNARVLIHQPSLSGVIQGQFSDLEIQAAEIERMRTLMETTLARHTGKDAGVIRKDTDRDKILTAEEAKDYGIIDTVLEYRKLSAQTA
Chain of His6-tagged ClpC1-NTD substrate, M. smegmatis ClpC1P1P2 (P9WPC9 1-156, looked up, natural form): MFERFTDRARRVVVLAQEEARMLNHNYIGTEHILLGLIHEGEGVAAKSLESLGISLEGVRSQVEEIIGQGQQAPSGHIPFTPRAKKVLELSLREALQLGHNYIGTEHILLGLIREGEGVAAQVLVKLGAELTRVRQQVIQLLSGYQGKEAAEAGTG
Chain of His6-tagged ClpC1-NTD substrate, M. smegmatis ClpC1P1P2 (A0R574 whole entry): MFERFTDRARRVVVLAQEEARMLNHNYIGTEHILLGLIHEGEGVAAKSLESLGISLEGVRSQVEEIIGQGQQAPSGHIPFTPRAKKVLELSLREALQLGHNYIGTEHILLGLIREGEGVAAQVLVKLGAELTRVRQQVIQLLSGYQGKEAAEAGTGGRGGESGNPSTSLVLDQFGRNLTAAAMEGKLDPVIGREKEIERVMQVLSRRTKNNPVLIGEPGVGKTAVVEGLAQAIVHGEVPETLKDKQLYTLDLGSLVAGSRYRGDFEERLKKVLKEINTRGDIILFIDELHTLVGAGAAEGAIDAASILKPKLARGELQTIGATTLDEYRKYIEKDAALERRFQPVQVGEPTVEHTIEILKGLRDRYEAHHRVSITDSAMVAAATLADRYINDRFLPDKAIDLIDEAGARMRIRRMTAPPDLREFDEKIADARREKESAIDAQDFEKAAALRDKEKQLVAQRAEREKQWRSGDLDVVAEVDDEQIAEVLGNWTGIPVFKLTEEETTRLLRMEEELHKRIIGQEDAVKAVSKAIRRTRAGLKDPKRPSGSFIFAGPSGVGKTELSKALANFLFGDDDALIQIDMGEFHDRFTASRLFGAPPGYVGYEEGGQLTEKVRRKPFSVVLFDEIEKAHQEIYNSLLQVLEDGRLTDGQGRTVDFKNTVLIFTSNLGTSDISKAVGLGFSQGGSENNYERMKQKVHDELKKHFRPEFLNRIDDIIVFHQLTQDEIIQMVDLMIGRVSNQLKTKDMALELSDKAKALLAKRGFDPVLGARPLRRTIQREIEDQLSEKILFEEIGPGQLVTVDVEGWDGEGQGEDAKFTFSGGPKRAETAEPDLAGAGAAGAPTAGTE
Chain of ClpC1 NTD protein (M. tuberculosis) (P9WPC9 1-156, looked up, natural form): as the sequence (P9WPC9 1-156, looked up, natural form) above

## CCCCCn1cc(C[C@@H]2NC(=O)[C@H](CC(C)C)N(C)C(=O)[C@H](C(C)C)NC(=O)[C@H]([C@H](OC)c3ccccc3)NC(=O)[C@H](C)NC(=O)[C@H](C[C@@H](C)CO)N(C)C(=O)[C@H](Cc3cn(C)c4ccccc34)NC2=O)nn1 [Compound 24]
[1]; Rat
  Hepatocyte Stability Rat QH: 33.303%
[1]; clearance in hepatocytes
  Hepatocyte Rat: 33 %Qh
[2]; Human
  Hepatocyte Stability Human QH: 17.172%
[3]; SPR, individual measurements (source data), read-out: KD ClpC1-NTD
  Kd: 4.68 nM and 4.44 nM
[3]; SPR, read-out: ClpC1-NTD KD Mean ± SD
  Kd: 4.6 ± 0.2 nM
Caco-2 monolayers; basolateral to apical
  CACO permeability PEBA: 0.000011 cm/s
Caco-2 monolayers; [7]
  Caco-2 Int. Perm: 5.6 10-6 cm s-1
In vitro; Caco-2, CACO permeability PEAB
  Papp A→B: < 0.27 ×10⁻⁶ cm/s
In vitro; Caco-2, CACO permeability PEBA
  Papp B→A: 13 ×10⁻⁶ cm/s
In vitro; [8]
  Papp A→B: < 0.3 ×10⁻⁶ cm/s
[4]; Mouse
  Hepatocyte Stability Mouse QH: 35.166%
[4]
  Hepatocyte Mice: 35 %Qh

## CO[C@H](c1ccccc1)[C@@H]1NC(=O)[C@H](C)NC(=O)[C@H](C[C@@H](C)CO)N(C)C(=O)[C@H](Cc2cn(Cc3cn(CCCCCn4cc(Cn5cc(C[C@H]6C(=O)N(C)[C@@H](C[C@@H](C)CO)C(=O)N[C@@H](C)C(=O)N[C@@H]([C@H](OC)c7ccccc7)C(=O)N[C@@H](C(C)C)C(=O)N(C)[C@@H](CC(C)C)C(=O)N[C@@H](C(C)C)C(=O)N6C)c6ccccc65)nn4)nn3)c3ccccc23)N(C)C(=O)[C@H](C(C)C)NC(=O)[C@H](CC(C)C)N(C)C(=O)[C@H](C(C)C)NC1=O [SI-57]
[5]; Mtb, Measurement 1-4
  1-Dmax, single measurements: 68.4% and 44.2% and 52.6%
[5]; Mtb, Measurement 1-4, read-out: DC50, single measurements
  DC50: 20.9 µM and 18.7 µM and 31.5 µM
[5]; Mtb, mean of the measurements, read-out: 1-Dmax, Mean
  1-Dmax (percent substrate remaining at maximal degradation): 55%
[5]; Mtb, mean of the measurements, read-out: DC50, Mean
  DC50: 23.7 µM
[1]; Rat
  Hepatocyte Stability Rat QH: 8.056%
[1]; clearance in hepatocytes
  Hepatocyte Rat: 8 %Qh
[6]; Msm, Measurement 1-6
  1-Dmax, single measurements: 73.5% and 61.5% and 74.0%
[6]; Msm, Measurement 1-6, read-out: 1-Dmax, single measurements
  1-Dmax (percent substrate remaining at maximal degradation): 60.5%
[6]; Msm, mean of the measurements, read-out: 1-Dmax, Mean
  1-Dmax (percent substrate remaining at maximal degradation): 67%
[6]; Msm, mean of the measurements, read-out: DC50, Mean
  DC50: 23 µM
[2]
  Hepatocyte Human: 12 %Qh
[3]; [9]
  Kd: 1.6 ± 0.8 nM
[3]; SPR, single independent measurements
  koff ClpC1-NTD: 0.001 s⁻¹
[3]; [10]
  Kd: 2.13 nM and 1 nM
[3]; SPR, single independent measurements, read-out: koff ClpC1-NTD
  koff: 0.002 s⁻¹
Caco-2 monolayers; [7]
  Caco-2 Int. Perm: 1.5 10-6 cm s-1
In vitro; [8]
  Papp A→B: < 2.2 ×10⁻⁶ cm/s
In vitro; [11]
  Papp B→A: < 0.7 ×10⁻⁶ cm/s
[4]
  Hepatocyte Mice: 15 %Qh

## CO[C@H](c1ccccc1)[C@@H]1NC(=O)[C@H](C)NC(=O)[C@H](C[C@@H](C)CO)N(C)C(=O)[C@H](Cc2cn(CCCCn3cc(C[C@H]4C(=O)N(C)[C@@H](C[C@@H](C)CO)C(=O)N[C@@H](C)C(=O)N[C@@H]([C@H](OC)c5ccccc5)C(=O)N[C@@H](C(C)C)C(=O)N(C)[C@@H](CC(C)C)C(=O)N[C@@H](C(C)C)C(=O)N4C)c4ccccc43)c3ccccc23)N(C)C(=O)[C@H](C(C)C)NC(=O)[C@H](CC(C)C)N(C)C(=O)[C@H](C(C)C)NC1=O [SI-61]
[5]
  1-Dmax, Mean: 42%
  1-Dmax, single measurements: 36.8% and 46.3%
[5]; read-out: DC50, Mean
  DC50: 7.2 µM
[5]; [12]
  DC50: 7.3 µM and 7 µM
[1]
  Hepatocyte Rat: 6 %Qh
  Hepatocyte Stability Rat QH: 6.192%
[6]
  1-Dmax, Mean: 42%
  1-Dmax, single measurements: 37.4% and 43.6% and 42.4% and 44.3%
[6]; read-out: DC50, Mean
  DC50: 5.3 µM
[6]; [12]
  DC50: 5.3 µM (2×) and 4.6 µM and 5.8 µM
[2]
  Hepatocyte Stability Human QH: 12.386%
[3]
  koff ClpC1-NTD: 8E-4 5E-4 1/s
[3]; read-out: KD ClpC1-NTD
  Kd: 0.581 nM and 0.49 nM
[3]; [13]
  Kd: 0.54 ± 0.06 nM
Caco-2 monolayers; Caco-2
  CACO permeability PEAB: <0.000 cm/sec
  CACO permeability PEBA: <0.000 cm/sec
  Caco-2 Int. Perm: 2.75 10-6 cm s-1
  Caco-2 permeability P (A-B): < 4.2 10-6 cm s-1
  Caco-2 permeability P (B-A): < 1.3 10-6 cm s-1
[4]
  Hepatocyte Stability Mouse QH: 15.001%
  Hepatocyte Mice: 15 %Qh

## C#CCOc1ccc([C@@H](OC)[C@@H]2NC(=O)[C@@H](C)NC(=O)[C@H](CC(C)CO)N(C)C(=O)C(Cc3cn(C)c4ccccc34)N(C)C(=O)C(C(C)C)NC(=O)[C@H](CC(C)C)N(C)C(=O)[C@@H](C(C)C)NC2=O)cc1 (some centres unmarked) [SI-64] (cyclo([NMeL][ξV][ξNMeTrp(1-Me)][X8][dA][X3][dV]))
[1]; Rat
  Hepatocyte Stability Rat QH: 49.748%
[1]; clearance in hepatocytes
  Hepatocyte Rat: 50 %Qh
[2]; Human
  Hepatocyte Stability Human QH: 21.688%
[2]
  Hepatocyte Human: 22 %Qh
[3]; [9]
  Kd: 11 ± 1 nM
[3]; [10]
  Kd: 12.1 nM and 10.5 nM
Caco-2 monolayers; apical to basolateral
  CACO permeability PEAB: 0.000014999999999999999 cm/s
Caco-2 monolayers; basolateral to apical
  CACO permeability PEBA: 0.000042999999999999995 cm/s
Caco-2 monolayers; influence of Trp-Nα methylation on P(A-B), matched pair, listed under the methylated partner
  Permeability Correlation P (A-B): > 75
Caco-2 monolayers; influence of Trp-Nα methylation on efflux ratio, matched pair, listed under the methylated partner
  Permeability Correlation Ratio: > 31
Caco-2 monolayers; [7]
  Caco-2 Int. Perm: 29.0 10-6 cm s-1
In vitro; Caco-2
  efflux ratio: 2.9
In vitro; Caco-2, CACO permeability PEAB
  Papp A→B: 17 ×10⁻⁶ cm/s
In vitro; Caco-2, CACO permeability PEBA
  Papp B→A: 44 ×10⁻⁶ cm/s
[4]; Mouse
  Hepatocyte Stability Mouse QH: 34.335%
[4]
  Hepatocyte Mice: 34 %Qh

## COC(c1ccc(OCc2cn(CCOCCOCCOCCOCCn3cc(COc4ccc(C(OC)C5NC(=O)C(C)NC(=O)C(CC(C)CO)N(C)C(=O)C(Cc6cn(C)c7ccccc67)N(C)C(=O)C(C(C)C)NC(=O)C(CC(C)C)N(C)C(=O)C(C(C)C)NC5=O)cc4)nn3)nn2)cc1)C1NC(=O)C(C)NC(=O)C(CC(C)CO)N(C)C(=O)C(Cc2cn(C)c3ccccc23)N(C)C(=O)C(C(C)C)NC(=O)C(CC(C)C)N(C)C(=O)C(C(C)C)NC1=O (centres unmarked) [SI-65]
[5]
  1-Dmax, Mean: 84%
  1-Dmax, single measurements: 84.7% and 83.2%
[5]; read-out: DC50, Mean
  DC50: 8 µM
[5]; [12]
  DC50: 7 µM and 9 µM
[1]
  Hepatocyte Stability Rat QH: 16.284%
[6]
  1-Dmax, Mean: 92%
  1-Dmax, single measurements: 86.9% and 92.9% and 97.0%
[6]; read-out: DC50, Mean
  DC50: 5.2 µM
[6]; [12]
  DC50: 6.1 µM and 5 µM and 4.5 µM
[2]
  Hepatocyte Stability Human QH: 12.386%
[3]
  koff ClpC1-NTD: 5E-3 1E-2 1/s
[3]; read-out: KD ClpC1-NTD
  Kd: 2.29 nM and 1.35 nM
[3]; [13]
  Kd: 1.8 ± 0.7 nM
Caco-2 monolayers; Caco-2
  CACO permeability PEAB: <0.0000086 cm/sec
  CACO permeability PEBA: <0.0000051 cm/sec
  Caco-2 Int. Perm: 6.9 10-6 cm s-1
[4]
  Hepatocyte Stability Mouse QH: 15.001%

## CO[C@H](c1ccc(OCc2cn(CCCCCn3cc(COc4ccc([C@@H](OC)[C@@H]5NC(=O)[C@H](C)NC(=O)[C@H](C[C@@H](C)CO)N(C)C(=O)[C@H](Cc6cn(C)c7ccccc67)N(C)C(=O)[C@H](C(C)C)NC(=O)[C@H](CC(C)C)N(C)C(=O)[C@H](C(C)C)NC5=O)cc4)nn3)nn2)cc1)[C@@H]1NC(=O)[C@H](C)NC(=O)[C@H](C[C@@H](C)CO)N(C)C(=O)[C@H](Cc2cn(C)c3ccccc23)N(C)C(=O)[C@H](C(C)C)NC(=O)[C@H](CC(C)C)N(C)C(=O)[C@H](C(C)C)NC1=O [SI-66]
[1]; Rat
  Hepatocyte Stability Rat QH: 9.964%
[1]; clearance in hepatocytes
  Hepatocyte Rat: 10 %Qh
[2]
  Hepatocyte Human: 12 %Qh
[3]; [9]
  Kd: 7 ± 2 nM
[3]; SPR dissociation rate constant, read-out: koff ClpC1-NTD Mean ± SD
  koff: 0.01 s⁻¹
[3]; [10]
  Kd: 8.57 nM and 6.41 nM
Caco-2 monolayers; [7]
  Caco-2 Int. Perm: 3.7 10-6 cm s-1
In vitro; [8]
  Papp A→B: < 4.8 ×10⁻⁶ cm/s
In vitro; [11]
  Papp B→A: < 2.5 ×10⁻⁶ cm/s
[4]
  Hepatocyte Mice: 15 %Qh
